Blank lines part the entries; values can stand above or below the compound they belong to.
What was measured:
COT = biological target: T1, COT (Homo sapiens, UniProt P41279); assay: Inhibition of COT kinase activity in RPMI-7951 cells (MEK/ERK phosphorylation immunoblot); type: cell-based; details: 1 h treatment
T1 construct: endogenous in cells; host or cells: RPMI-7951 (ATCC), MAP3K8/COT-amplified, B-RAF V600E melanoma line
Method: Cells were washed twice with ice-cold PBS and lysed with 1% NP-40 buffer [150 mM NaCl, 50 mM Tris pH 7.5, 2 mM EDTA pH 8, 25 mM NaF and 1% NP-40] containing 2× protease inhibitors (Roche) and 1× Phosphatase Inhibitor Cocktails I and II (CalBioChem). Lysates were quantified (Bradford assay), normalized, reduced, denatured (95° C.) and resolved by SDS gel electrophoresis on 10% Tris/Glycine gels (Invitrogen). Protein was transferred to PVDF membranes and probed with primary antibodies recognizing pERK1/2 (T202/Y204), pMEK1/2 (S217/221), MEK1/2, MEK1, MEK2, C-RAF (rabbit host), pC-RAF (pS338) (Cell Signaling Technology; 1:1,000), V5-HRP (Invitrogen; (1:5,000), COT (1:500), B-RAF (1:2,000), Actin (1:1,000), Actin-HRP (1:1,000; Santa Cruz)), C-RAF (mouse host; 1:1,000; BD Transduction Labs), Vinculin (Sigma; 1:20,000), AXL (1:500; R&D Systems). After incubation with the appropriate secondary antibody (anti-rabbit, anti-mouse IgG, HRP-linked; 1:1,000 dilution, Cell Signaling Technology or anti-goat IgG, HRP-linked; 1:1,000 dilution; Santa Cruz), proteins were detected using chemiluminescence (Pierce). […] Immunoblots were performed as above. Phospho-protein quantification was performed using NIH Image J.
Adherent RPMI-7951 cells were washed twice with 1×PBS and incubated overnight in serum-free growth media.

A375 cells = assay: High throughput ORF screening: viability of A375 expressing the kinase ORF collection in 1 μM PLX4720 relative to untreated, normalized to MEK1DD (Cell Titer-Glo); type: cell-based, human
[1] = system: pERK1/2 (T202/Y204), pMEK1/2 (S217/221); assay: Immunoblots and immunoprecipitations of MAPK pathway proteins in treated cells; type: cell-based, human
Method: Cells were washed twice with ice-cold PBS and lysed with 1% NP-40 buffer [150 mM NaCl, 50 mM Tris pH 7.5, 2 mM EDTA pH 8, 25 mM NaF and 1% NP-40] containing 2× protease inhibitors (Roche) and 1× Phosphatase Inhibitor Cocktails I and II (CalBioChem). Lysates were quantified (Bradford assay), normalized, reduced, denatured (95° C.) and resolved by SDS gel electrophoresis on 10% Tris/Glycine gels (Invitrogen). Protein was transferred to PVDF membranes and probed with primary antibodies recognizing pERK1/2 (T202/Y204), pMEK1/2 (S217/221), MEK1/2, MEK1, MEK2, C-RAF (rabbit host), pC-RAF (pS338) (Cell Signaling Technology; 1:1,000), V5-HRP (Invitrogen; (1:5,000), COT (1:500), B-RAF (1:2,000), Actin (1:1,000), Actin-HRP (1:1,000; Santa Cruz)), C-RAF (mouse host; 1:1,000; BD Transduction Labs), Vinculin (Sigma; 1:20,000), AXL (1:500; R&D Systems). After incubation with the appropriate secondary antibody (anti-rabbit, anti-mouse IgG, HRP-linked; 1:1,000 dilution, Cell Signaling Technology or anti-goat IgG, HRP-linked; 1:1,000 dilution; Santa Cruz), proteins were detected using chemiluminescence (Pierce). Immunoprecipitations were performed overnight at 4° C. in 1% NP-40 lysis buffer, as described above, at a concentration of 1 μg/μl total protein using an antibody recognizing C-RAF (1:50; Cell Signaling Technology). Antibody: antigen complexes were bound to Protein A agarose (25 μL, 50% slurry; Pierce) for 2 hrs. at 4° C. Beads were centrifuged and washed three times in lysis buffer and eluted and denatured (95° C.) in 2× reduced sample buffer (Invitrogen). Immunoblots were performed as above. Phospho-protein quantification was performed using NIH Image J.

B-RAF^V600E cell lines = assay: Pharmacologic growth inhibition assays (WST1 viability, GI50, single-dose studies); type: cell-based, human
Method: Cultured cells were seeded into 96-well plates (3,000 cells per well) for all melanoma cell lines; 1,500 cells were seeded for A375. Twenty-four hours after seeding, serial dilutions of the relevant compound were prepared in DMSO added to cells, yielding final drug concentrations ranging from 100 μM to […], with the final volume of DMSO not exceeding 1%. Cells were incubated for 96 h following addition of drug. Cell viability was measured using the WST1 viability assay (Roche). Viability was calculated as a percentage of control (untreated cells) after background subtraction. A minimum of six replicates were performed for each cell line and drug combination. Data from growth-inhibition assays were modeled using a nonlinear regression curve fit with a sigmoid dose-response. […] Sigmoid-response curves that crossed the 50% inhibition point at or above 10 μM have GI50 values annotated as >10 μM. For single-dose studies, the identical protocol was followed, using a single dose of indicated drug (1 μM unless otherwise noted).

[2] = ectopic COT expression, 1 μM each, versus single-agent PLX4720 up to 10 μM

MEK and ERK phosphorylation (COT): dose-dependent suppression
Compound: CN(c1cccnc1)c1cc2c(Nc3ccc(F)c(Cl)c3)c(C#N)cnc2cn1 [small molecule COT kinase inhibitor, 4-(3-Chloro-4-fluorophenylamino)-6-(pyridin-3-yl-methylamino)-3-cyano-[1,7]-naphthyridine]

Compound: CCL4
Z-SCORE of average differential proliferation (1 μM PLX4720/control) (A375 cells; A375 cells expressing the named ORF, relative to mean of all ORFs (44.26%, SD 7.19%)): −0.13 | AVERAGE differential proliferation (1 μM PLX4720/control), relative to MEK DD (A375 cells; A375 cells expressing the named kinase-related ORF, 1 μM PLX4720 vs untreated control, normalized to MEK DD): 43.30%

Compound: O=C(NOCC1CC1)c1ccc(F)c(F)c1Nc1ccc(I)cc1Cl [CI-1040]
ERK phosphorylation ([1]; OUMS-23 and RPMI-7951, 1 μM CI-1040): sustained ERK phosphorylation | pERK expression, in combination with PLX4720 [1, 2]: more effectively than did single-agent PLX4720 | sensitivity to MEK inhibitor with ectopic COT expression (B-RAF^V600E cell lines; A375 and SKMEL28 cells ectopically expressing COT): decreased sensitivity | sensitivity of cell lines with aberrant MAP3K8/COT copy number/expression (B-RAF^V600E cell lines; B-RAF^V600E cell lines): insensitive | sensitivity to MEK inhibition (growth) (B-RAF^V600E cell lines; OUMS-23 and RPMI-7951 cell lines): refractory | cell growth, in combination with PLX4720 (B-RAF^V600E cell lines; [2]): more effectively than did single-agent PLX4720

Reference: US11078540B2, “Methods of diagnosing and treating cancer in patients having or developing resistance to a first cancer therapy” (DANA-FARBER CANCER INSTITUTE, INC., priority 2010, dated 2021)
